Source: patent US5330994A, “Tetrahydropyridine isoxazoline derivatives” (Warner-Lambert Company, priority 1992, dated 1994)
Structures can show the parent of a compound that is named as a salt.

Legend:
[1] = test system: muscarinic antagonist sites; test: Binding to muscarinic antagonist sites using [^3 H]quinuclidinyl benzylate (RQNB); details: [^3 H]quinuclidinyl benzylate radioligand
Procedure: (§1) Sigma binding affinities are measured using [^3 H]-(+)-3-(3'-hydroxyphenyl)-N-(1'-propyl)-piperdine, referred to in the following Table I as 3PPP. This test is carried out according to the procedures of B. L. Largent, et al, Proc. Natl. Acad. Sci., USA, 1984; 81:5618. The ability of the compounds to bind muscarinic antagonist sites was determined invitro using [^3 H]quinuclidinyl benzylate (RQNB) according to the procedure of M. Watson, J. Pharmacol. Exp. Ther. 1986; 237-411.

sigma binding site = molecular target: T1, sigma binding site (Rattus norvegicus, UniProt Q9R0C9); test: Sigma binding affinity using [^3 H]-(+)-3-(3'-hydroxyphenyl)-N-(1'-propyl)-piperdine (3PPP); details: [^3 H]PPP radioligand
T1 construct: from tissue
Procedure: as §1

T1 sequence (Q9R0C9 whole entry): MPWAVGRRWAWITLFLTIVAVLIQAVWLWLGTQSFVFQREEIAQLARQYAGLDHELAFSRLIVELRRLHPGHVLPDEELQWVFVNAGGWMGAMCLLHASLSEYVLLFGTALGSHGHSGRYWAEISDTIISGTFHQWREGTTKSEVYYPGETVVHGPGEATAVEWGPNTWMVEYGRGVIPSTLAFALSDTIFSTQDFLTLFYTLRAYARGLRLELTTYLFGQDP

| RQNB % Inhibition @ 1 μM [1] | IC50 (sigma binding site) | SMILES |
| --- | --- | --- |
| 23% | > 10000 nM | CCCN1CCC=C(c2cc(-c3ccccc3OC)no2)C1 [Example 9A, 3-(2'-Methoxyphenyl)-5-[3'-(1'-propyl-1', 2', 5', 6'-tetrahydropyridinyl)]isoxazole oxalate] |
| 7% | 39.1 nM | CCCN1CCC=C(C2=NOC(c3ccc(OC)cc3)C2)C1 (stereo not shown) [Example 2, 3-[3'-(1'-Propyl-1', 2', 5', 6'-tetrahydropyridinyl) ]-5-(4'-methoxyphenyl)-2-isoxazoline] |
| 10% | 0.067 nM | CCCN1CCC=C(c2cc(-c3ccc(C)cc3)no2)C1 [Example 5A, 3-(4'-Methylphenyl)-5-[3'-(1'-propyl-1', 2', 5', 6'-tetrahydropyridinyl)]isoxazole oxalate] |
| 10% | 7.05 nM | CCCN1CCC=C(C2=NOC(c3ccccc3)C2)C1 (stereo not shown) [Example 1, 3-[3'-(1'-propyl-1', 2', 5', 6'-tetrahydropyridinyl)]-5-phenyl-2-isoxazoline] |
| 10% | 0.78 nM | CCCN1CCC=C(c2cc(-c3ccccc3)no2)C1 [Example 4A, 3-phenyl-5-[3'-(1'-propyl-1', 2', 5', 6'-tetrahydropyridinyl)]isoxazole oxalate] |
| 12% | 10000 nM | CCCN1CCC=C(c2cc(-c3ccccc3OC)on2)C1 [Example 9B, 3-[3'-(1'-propyl-1', 2', 5', 6'-tetrahydropyridinyl)]-5-(2'-methoxyphenyl)isoxazole oxalate] |
| 11% | 10000 nM | CCCN1CCC=C(c2cc(-c3ccc(OC)cc3)no2)C1 [Example 14A, 3-(4'-Methoxyphenyl)-5-[3'-(1'-propyl-1', 2', 5', 6'-tetrahydropyridinyl)]isoxazole oxalate] |
| 40% | 3640 nM | CCCN1CCC=C(c2cc(-c3ccccc3C)no2)C1 [Example 8A, 3-(2'-Methylphenyl)-5-[3'-(1'-propyl-1', 2', 5', 6'-tetrahydropyridinyl)]isoxazole oxalate] |
| 22% | 1.03 nM | CCCN1CCC=C(C2=NOC(c3ccc(Cl)cc3)C2)C1 (stereo not shown) [Example 3, 3-[3'-(1'-Propyl-1', 2', 5', 6'-tetrahydropyridinyl)]-5-(4'-chlorophenyl)-2-isoxazoline] |
| 6% | 0.62 nM | CCCN1CCC=C(c2cc(-c3ccc(C)cc3)on2)C1 [Example 5B, 3-[3'-(1'-propyl-1', 2', 5', 6'-tetrahydropyridinyl)]-5-(4'-methylphenyl)isoxazole oxalate] |
| 12% | 546 nM | CCCN1CCC=C(c2cc(-c3ccccc3C)on2)C1 [Example 8B, 3-[3'-(1'-propyl-1', 2', 5', 6'-tetrahydropyridinyl)]-5-(2'-methylphenyl)isoxazole oxalate] |
| 4% | 8.8 nM | CCCN1CCC=C(c2cc(-c3ccccc3)on2)C1 [Example 4B, 3-[3'-(1'-propyl-1', 2', 5', 6'-tetrahydropyridinyl)]-5-phenylisoxazole oxalate] |
| 15% | 4 nM | CCCN1CCC=C(c2cc(-c3cccc(OC)c3)no2)C1 [Example 6A, 3-(3'-Methoxyphenyl)-5-[3'-(1'-propyl-1', 2', 5', 6'-tetrahydropyridinyl)]isoxazole oxalate] |
| 10% | 9.9 nM | CCCN1CCC=C(c2cc(-c3cccc(C)c3)on2)C1 [Example 7B, 3-[3'-(1'-propyl-1', 2', 5', 6'-tetrahydropyridinyl)]-5-(3'-methylphenyl)isoxazole oxalate] |
| 10% | 0.45 nM | CCCN1CCC=C(c2cc(-c3cccc(C)c3)no2)C1 [Example 7A, 3-(3'-Methylphenyl)-5-[3'-(1'-propyl-1', 2', 5', 6'-tetrahydropyridinyl)]isoxazole oxalate] |
| 9% | 1470 nM | CCCN1CCC=C(c2cc(-c3ccc(OC)cc3)on2)C1 [Example 14B, 3-[3'-(1'-propyl-1', 2', 5', 6'-tetrahydropyridinyl)]-5-(4'-methoxyphenyl)isoxazole oxalate] |
| 7% | 0.1 nM | CCCN1CCC=C(c2cc(-c3cccc(OC)c3)on2)C1 [Example 6B, 3-[3'-(1'-propyl-1', 2', 5', 6'-tetrahydropyridinyl)]-5-(3'-methoxyphenyl)isoxazole oxalate] |
